US6564152B2, “Pharmacophore models for, methods of screening for, and identification of the cytochrome P-450 inhibitory potency of neurokinin-1 receptor antagonists” (Pfizer Inc, priority 2000, dated 2003)
Like-named read-outs stand apart in the source and are kept apart here.

Biological target: recombinant CYP2D6 (Homo sapiens, UniProt P10635)
Assay: Bufuralol 1'-hydroxylase assay (CYP2D6) IC50 determination
[1] = CYP2D6 IC50, recombinant CYP2D6 0.1 mg/ml, bufuralol 3.4 μM, 37° C., pH 7.4, Table I
[2] = IC50 Observed, test set of 8 compounds, in vitro values as measured in Example 1, Table II

Chain of recombinant CYP2D6 (P10635 whole entry): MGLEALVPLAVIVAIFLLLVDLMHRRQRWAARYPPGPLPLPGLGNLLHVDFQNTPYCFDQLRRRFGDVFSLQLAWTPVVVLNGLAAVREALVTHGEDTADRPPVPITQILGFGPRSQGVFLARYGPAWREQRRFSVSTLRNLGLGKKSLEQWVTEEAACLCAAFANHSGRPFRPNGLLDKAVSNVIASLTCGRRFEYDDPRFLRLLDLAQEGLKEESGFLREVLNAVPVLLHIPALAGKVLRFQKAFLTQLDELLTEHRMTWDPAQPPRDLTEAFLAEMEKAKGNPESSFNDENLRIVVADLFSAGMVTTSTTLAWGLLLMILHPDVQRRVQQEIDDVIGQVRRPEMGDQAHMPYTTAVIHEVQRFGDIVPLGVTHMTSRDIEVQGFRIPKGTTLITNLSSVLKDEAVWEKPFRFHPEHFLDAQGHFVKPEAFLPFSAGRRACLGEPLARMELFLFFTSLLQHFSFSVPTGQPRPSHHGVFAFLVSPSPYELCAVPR
Protocol: Using a bufuralol-hydroxylation as a marker for CYP2D6 catalytic activity, the inhibitory effect of various NK-1 antagonists were assessed in vitro. The inhibitor compounds of Table I were assayed for CYP2D6 activity by the following procedure.
Two separate plates were prepared for the substrate and for dilutions of inhibitor. The contents of the two plates were combined in a 1:1 ratio to make a master plate of substrate and inhibitor solutions (S/I plate). The remaining assay ingredients, a combination of CYP2D6 (0.1 mg/ml, 0.12 pmol/ml, Panvera, Madison Wis.), NADPH (1.2 mM) and buffer (100 mM sodium phosphate, pH 7.4), are prepared on ice and transferred to a polyvinyl reaction plate (RXN plate). […] The RXN plate is pre-warmed to 37° C. using a MJ Research Model PTC-100 automated thermal controller, and the reaction is initiated by addition of an aliquot from the S/I plate. The reaction is allowed to proceed at 37° C. before being terminated using 70% perchloric acid (50 μl). HPLC analysis is preceded by filtration of (150μl) using a Millipore multiscreen-MAHA mixed cellulose esters, triton free, non-sterile plate (Millipore Co., Bedford, Mass.).
The reactions were then terminated as described above and Multiscreen plates were then used to filter the samples by slowly drawing them through the filter plate by a weak vacuum and collecting them in a polypropylene 96-well plate. The plate was mixed by drawing up and expelling well contents twice with the Soken pipettor. A 20 μl volume of each sample was injected for HPLC analysis every 2.5 minutes. When required, concentrations of the inhibitor were adjusted in a repeat experiment to cover concentration ranges above and below the reported IC50 value.
The mobile phase consisted of acetonitrile and water 20/80 v/v containing triethylamine (1 ml/liter) and phosphoric acid (600 l/liter) at a flow rate of 0.5 ml/min (analytical side) and 1.8 ml/min (wash side) using a column switching format. HPLC analysis was performed with two alternating HPLC columns (column A and column B) attached to a Valco E36 valve. Between 0 and 5.2 minutes of the run time, column A analyses metabolite peak of sample #1. […] During the wash cycle, the flow to column A is increased to 1.8 ml/min. […] A Phenomex primesphere C1 8-MC, 5 μm, 30×2 mm column (Phenomenex, Torrance, Calif.) was used. The retention time of the 1′-hydroxybufuralol (carbinol) metabolite was 1.0 minute. The peak area of the carbinol metabolite was determined in the absence of inhibitor and compared to that measured in the presence of inhibitor. The percent of control values versus inhibitor concentration were fitted to a Hill equation using non-linear curve fitting methods, namely, Deltagraph (DeltaPoint, Inc., Monterey, Calif.).

SMILES | IC50 [1] | IC50 | IC50 [2]
COc1ccc(OC)c(CN[C@H]2CCCN[C@H]2c2ccccc2)c1 [Compound X] | 370 nM | – | –
CC(C)Oc1ccc(OC(F)(F)F)cc1CN[C@H]1CCCN[C@H]1c1ccccc1 [XIX] | – | 47 nM | –
CC(C)Oc1ccccc1CN[C@H]1CCCN[C@H]1c1ccccc1 [XIV] | 38 nM | – | 38 nM
O=c1[nH]nc(CN2CCO[C@H](OCc3cc(C(F)(F)F)cc(C(F)(F)F)c3)[C@@H]2c2ccccc2)[nH]1 [Compound XXIV] | 7100 nM | – | 7100 nM
COc1ccccc1CN[C@@H]1[C@H]2CCC[C@H]2N[C@@H]1c1ccccc1 [IX] | 130 nM | – | –
COc1ccccc1CC(=N)N1C[C@H]2C(=O)CCC(c3ccccc3)(c3ccccc3)[C@H]2C1 [XIII] | 13 nM | – | –
COc1ccccc1CN[C@@H]1C2CC3CCCC(C2)N3[C@@H]1C(c1ccccc1)c1ccccc1 [VIII] | 22 nM | – | –
Clc1ccccc1CN[C@@H]1C2CC3CCC(C2)N3[C@@H]1C(c1ccccc1)c1ccccc1 [VII] | 65 nM | – | –
FC(F)(F)c1cc(CO[C@H]2OCCN(Cc3nnc[nH]3)[C@H]2c2ccccc2)cc(C(F)(F)F)c1 [XXIII] | 8800 nM | – | –
COc1ccccc1CN[C@H]1CCCN[C@H]1c1ccccc1 [IV] | 200 nM | – | 21 nM
COc1ccccc1CN[C@@H]1C2C3CCCC2CN(C3)[C@@H]1C(c1ccccc1)c1ccccc1 [XII] | 6.7 nM | – | –
FC(F)Oc1ccccc1CN[C@H]1CCCN[C@H]1c1ccccc1 [XVI] | 74 nM | – | –
COc1ccc(-n2nnnc2C(F)(F)F)cc1CN[C@H]1CCCN[C@H]1c1ccccc1 [XXVI] | 530 nM | – | –
Clc1ccccc1CN[C@@H]1C2C3CCCC2CN(C3)[C@@H]1C(c1ccccc1)c1ccccc1 [XI] | 16 nM | – | 16 nM
c1ccc(CN[C@@H]2C3CC4CCC(C3)N4[C@@H]2C(c2ccccc2)c2ccccc2)cc1 [VI] | 13 nM | – | 13 nM
Clc1ccccc1CN[C@@H]1C2CCN(CC2)[C@@H]1C(c1ccccc1)c1ccccc1 [I] | – | 59 nM | –
COc1ccccc1CN[C@@H]1CCCC[C@@H]1C(c1ccccc1)c1ccccc1 [II] | 16 nM | – | 16 nM
COc1ccccc1CN[C@@H]1C2CC3CCC(C2)N3[C@@H]1C(c1ccccc1)c1ccccc1 [V] | 41 nM | – | –
COc1ccccc1[C@H]1CC[C@]2(CCCN[C@@H]2c2ccccc2)NC1 [Compound XX] | 21 nM | – | –
C[C@@H](O[C@H]1OCCN(Cc2n[nH]c(=O)[nH]2)[C@H]1c1ccc(F)cc1)c1cc(C(F)(F)F)cc(C(F)(F)F)c1 [Compound XXI] | 18400 nM | – | –
CCOc1ccc(OC(F)(F)F)cc1CN[C@H]1CCCN[C@H]1c1ccccc1 [XVIII] | 45 nM | – | –
FC(F)(F)Oc1ccccc1CN[C@H]1CCCN[C@H]1c1ccccc1 [XVII] | 40 nM | – | –
COc1ccccc1CN[C@@H]1C2CCN(CC2)[C@@H]1C(c1ccccc1)c1ccccc1 [III] | 170 nM | – | –
COc1ccc(-n2cnnn2)cc1CN[C@H]1CCCN[C@H]1c1ccccc1 [XXV] | 320 nM | – | 320 nM
